Test results taken from BindingDB's records for doi:10.1021/jm950759z (Cooperation Pharmaceutique Fran?aise, 1997).
pKi: −log10 of the molar value.

Assay: Inhibition of [3H]spiperone binding to Dopamine receptor D3 in bovine cortex

Q: With `O=C1CC2(CCCC2)CC(=O)N1CCCCN1CCN(c2ncccn2)CC1` [BUSPAR] as the compound, how does the pKi read?
A: The pKi was 6.18.
